Assay results from the CheMixHub ionic liquid set.
± gives the uncertainty stated by the source.

Experiment: xn = mol fraction of the nth substance listed

CC(=O)[O-].Cn1cc[n+](CCO)c1 + O
100 kPa
Conditions | viscosity [mPa·s]
293.15 K, x1 = 0.9003 | 93.9 ± 4.3
298.15 K, x1 = 0.8317 | 41.2 ± 1.7
298.15 K, x1 = 0.8712 | 56.8 ± 2.4
303.15 K, x1 = 0.8317 | 32 ± 1.4
303.15 K, x1 = 0.8712 | 43.6 ± 1.8
308.15 K, x1 = 0.8317 | 25.4 ± 1.1
308.15 K, x1 = 0.8818 | 36.7 ± 1.5
313.15 K, x1 = 0.8632 | 25.8 ± 1.1
313.15 K, x1 = 0.8712 | 26.6 ± 1.1
313.15 K, x1 = 0.8818 | 29 ± 1.2
323.15 K, x1 = 0.8818 | 19.3 ± 0.81
328.15 K, x1 = 0.8712 | 14.72 ± 0.62
333.15 K, x1 = 0.8818 | 13.46 ± 0.57
333.15 K, x1 = 0.9003 | 14.78 ± 0.62

CCCCCCCCCCCCCC[P+](CCCC)(CCCC)CCCC.CCCCCCCCCCCCc1ccc(S(=O)(=O)[O-])cc1 + O
100 kPa
Conditions | viscosity [mPa·s]
323.15 K, x1 = 0.3453 | 116 ± 8
353.15 K, x1 = 0.892 | 148 ± 10

CCCCCCCCCCCCCC[P+](CCCCCC)(CCCCCC)CCCCCC.[Cl-] + O
100 kPa, x2 = 0.818
Conditions | viscosity [mPa·s]
318.15 K | 50.65 ± 0.37
323.15 K | 41.05 ± 0.32

CCCCCCCCCn1cc[n+](C)c1.O=S(=O)([N-]S(=O)(=O)C(F)(F)F)C(F)(F)F + O
100 kPa, x2 = 0.1736
Conditions | viscosity [mPa·s]
298.15 K | 72.66 ± 0.69
308.15 K | 46.59 ± 0.41
318.15 K | 31.72 ± 0.28
323.15 K | 26.65 ± 0.23
358.15 K | 10.15 ± 0.09
363.15 K | 9.09 ± 0.08

CCCCCCC[n+]1ccn(C)c1.O=S(=O)([N-]S(=O)(=O)C(F)(F)F)C(F)(F)F + O
100 kPa, x2 = 0.1971
Conditions | viscosity [mPa·s]
308.15 K | 34.86 ± 0.31
318.15 K | 24.33 ± 0.21
323.15 K | 20.69 ± 0.18
358.15 K | 8.4 ± 0.07

CCCCCC[n+]1ccn(C)c1.O=S(=O)([N-]S(=O)(=O)C(F)(F)C(F)(F)F)C(F)(F)C(F)(F)F + O
101 kPa, x2 = 0.187
Conditions | electrical conductivity [S/m] | viscosity [mPa·s]
293.15 K | – | 122 ± 17
295.15 K | 0.15 ± 0.02 | –

CCCCC[n+]1ccn(C)c1.C[C@H](N)C(=O)[O-] + O
viscosity [mPa·s], 100.3 kPa
Conditions | 288.15 K | 293.15 K | 298.15 K | 303.15 K | 308.15 K | 313.15 K | 318.15 K | 323.15 K | 328.15 K
x1 = 0.0003008 | 1.156 ± 0.016 | 1.015 ± 0.016 | 0.9 ± 0.015 | 0.81 ± 0.015 | 0.725 ± 0.015 | 0.661 ± 0.015 | 0.604 ± 0.015 | 0.554 ± 0.015 | 0.511 ± 0.015
x1 = 0.0003999 | 1.162 ± 0.016 | 1.022 ± 0.016 | 0.907 ± 0.015 | 0.813 ± 0.015 | 0.732 ± 0.015 | 0.664 ± 0.015 | 0.606 ± 0.015 | 0.556 ± 0.015 | 0.513 ± 0.015
x1 = 0.0005025 | 1.167 ± 0.016 | 1.027 ± 0.016 | 0.911 ± 0.015 | 0.817 ± 0.015 | 0.735 ± 0.015 | 0.666 ± 0.015 | 0.608 ± 0.015 | 0.559 ± 0.015 | 0.515 ± 0.015
x1 = 0.001012 | 1.203 ± 0.016 | 1.057 ± 0.016 | 0.937 ± 0.015 | 0.838 ± 0.015 | 0.755 ± 0.015 | 0.684 ± 0.015 | 0.626 ± 0.015 | 0.573 ± 0.015 | 0.529 ± 0.015
x1 = 0.00302 | 1.361 ± 0.016 | 1.197 ± 0.016 | 1.057 ± 0.016 | 0.939 ± 0.015 | 0.841 ± 0.015 | 0.759 ± 0.015 | 0.688 ± 0.015 | 0.629 ± 0.015 | –
x1 = 0.005081 | 1.512 ± 0.017 | 1.325 ± 0.016 | 1.163 ± 0.016 | 1.027 ± 0.016 | 0.916 ± 0.015 | 0.827 ± 0.015 | 0.749 ± 0.015 | 0.685 ± 0.015 | –
x1 = 0.006922 | 1.657 ± 0.017 | 1.445 ± 0.017 | 1.272 ± 0.016 | 1.118 ± 0.016 | 0.997 ± 0.016 | 0.893 ± 0.015 | 0.805 ± 0.015 | 0.736 ± 0.015 | –
x1 = 0.009062 | 1.82 ± 0.017 | 1.574 ± 0.017 | 1.367 ± 0.016 | 1.208 ± 0.016 | 1.07 ± 0.016 | 0.958 ± 0.015 | 0.867 ± 0.015 | 0.781 ± 0.015 | –
x1 = 0.01107 | 1.956 ± 0.018 | 1.696 ± 0.017 | 1.476 ± 0.017 | 1.3 ± 0.016 | 1.146 ± 0.016 | 1.026 ± 0.016 | 0.928 ± 0.015 | 0.831 ± 0.015 | –
x1 = 0.01292 | 2.098 ± 0.018 | 1.817 ± 0.018 | 1.578 ± 0.017 | 1.378 ± 0.016 | 1.223 ± 0.016 | 1.087 ± 0.016 | 0.985 ± 0.016 | 0.887 ± 0.015 | –
x1 = 0.0148 | 2.243 ± 0.019 | 1.938 ± 0.018 | 1.674 ± 0.017 | 1.467 ± 0.017 | 1.291 ± 0.016 | 1.155 ± 0.016 | 1.035 ± 0.016 | 0.931 ± 0.015 | –
x1 = 0.01797 | 2.456 ± 0.02 | 2.105 ± 0.018 | 1.823 ± 0.018 | 1.596 ± 0.017 | 1.392 ± 0.016 | 1.252 ± 0.016 | 1.114 ± 0.016 | 0.999 ± 0.016 | –

CCC[n+]1ccn(C)c1.C[C@H](N)C(=O)[O-] + O
viscosity [mPa·s], 100.3 kPa
Conditions | 288.15 K | 293.15 K | 298.15 K | 303.15 K | 308.15 K | 313.15 K | 318.15 K | 323.15 K | 328.15 K
x1 = 0.0003008 | 1.156 ± 0.019 | 1.017 ± 0.018 | 0.9 ± 0.017 | 0.81 ± 0.017 | 0.727 ± 0.016 | 0.661 ± 0.016 | 0.604 ± 0.016 | 0.554 ± 0.016 | 0.511 ± 0.015
x1 = 0.0003999 | 1.162 ± 0.02 | 1.022 ± 0.018 | 0.907 ± 0.017 | 0.813 ± 0.017 | 0.732 ± 0.016 | 0.664 ± 0.016 | 0.606 ± 0.016 | 0.557 ± 0.016 | 0.513 ± 0.015
x1 = 0.0004953 | 1.167 ± 0.02 | 1.027 ± 0.018 | 0.911 ± 0.018 | 0.817 ± 0.017 | 0.735 ± 0.017 | 0.666 ± 0.016 | 0.608 ± 0.016 | 0.559 ± 0.016 | 0.516 ± 0.016
x1 = 0.001005 | 1.203 ± 0.021 | 1.057 ± 0.02 | 0.938 ± 0.018 | 0.838 ± 0.017 | 0.755 ± 0.017 | 0.685 ± 0.016 | 0.626 ± 0.016 | 0.573 ± 0.016 | 0.529 ± 0.016
x1 = 0.003004 | 1.362 ± 0.021 | 1.197 ± 0.02 | 1.057 ± 0.019 | 0.939 ± 0.018 | 0.842 ± 0.017 | 0.759 ± 0.016 | 0.688 ± 0.016 | 0.629 ± 0.016 | –
x1 = 0.004999 | 1.513 ± 0.021 | 1.326 ± 0.02 | 1.163 ± 0.018 | 1.028 ± 0.017 | 0.917 ± 0.017 | 0.828 ± 0.016 | 0.749 ± 0.016 | 0.685 ± 0.016 | –
x1 = 0.007004 | 1.658 ± 0.022 | 1.447 ± 0.02 | 1.273 ± 0.018 | 1.119 ± 0.018 | 0.998 ± 0.017 | 0.894 ± 0.016 | 0.806 ± 0.016 | 0.736 ± 0.016 | –
x1 = 0.008999 | 1.822 ± 0.022 | 1.576 ± 0.02 | 1.368 ± 0.019 | 1.21 ± 0.018 | 1.071 ± 0.017 | 0.959 ± 0.017 | 0.868 ± 0.016 | 0.781 ± 0.016 | –
x1 = 0.011 | 1.958 ± 0.022 | 1.698 ± 0.02 | 1.478 ± 0.019 | 1.302 ± 0.018 | 1.147 ± 0.017 | 1.027 ± 0.017 | 0.929 ± 0.016 | 0.832 ± 0.016 | –
x1 = 0.01301 | 2.101 ± 0.022 | 1.819 ± 0.021 | 1.581 ± 0.019 | 1.38 ± 0.018 | 1.225 ± 0.017 | 1.089 ± 0.017 | 0.986 ± 0.016 | 0.888 ± 0.016 | –
x1 = 0.015 | 2.247 ± 0.023 | 1.941 ± 0.021 | 1.678 ± 0.019 | 1.469 ± 0.018 | 1.293 ± 0.017 | 1.157 ± 0.017 | 1.037 ± 0.016 | 0.932 ± 0.016 | –
x1 = 0.01799 | 2.46 ± 0.023 | 2.109 ± 0.022 | 1.826 ± 0.02 | 1.599 ± 0.019 | 1.394 ± 0.018 | 1.254 ± 0.017 | 1.115 ± 0.017 | 1 ± 0.016 | –
